Laboratory results reported in patent US4622401A, “Heterocyclic substituted-amino-pyrazolines” (American Cyanamid Company, priority 1982, dated 1986).

Columns and labels:
[1] = reported by Higgs et al., Biochemical Pharmacology 28 1959 (1979); cited from earlier work
[2] = "writhing syndrome" test for analgesic activity
Description: A method employed for measuring the in vivo activity of the compounds of the present invention is the "writhing syndrome" test for analgesic activity as described by Seigmund, et al., Proc. Soc, Exp. Biol. and Med., 95:729 (1957) with modifications. Representative compounds of the present invention which are active when tested by the "writhing syndrome" test are: 2-(3-Amino-2-pyrazolin-1-yl)benzothiazole 2-(3-Amino-5-methyl-2-pyrazolin-1-yl)benzothiazole

SMILES	anti-inflammatory activity [1]	analgesic activity in vivo, "writhing syndrome" test [2]
NC1=NN(c2cccc(C(F)(F)F)c2)CC1 [BW 755C, 3-amino-1-[m-(trifluoromethyl)phenyl]-2-pyrazoline]	anti-inflammatory activity	
NC1=NN(c2nc3ccccc3s2)CC1 [Example 11, 2-(3-Amino-2-pyrazolin-1-yl)benzothiazole]		active
CC1CC(N)=NN1c1nc2ccccc2s1 (stereo not drawn) [Example 13, 2-(3-Amino-5-methyl-2-pyrazolin-1-yl)benzothiazole]		active
